# Test results as given in US20250207091A1, “METHODS AND COMPOSITIONS FOR PRODUCING PRIMORDIAL GERM CELL-LIKE CELLS” (President and Fellows of Harvard College, priority 2022, published 2025).
# B1: HHEX: Hematopoietically Expressed Homeobox transcription factor (SEQ ID NO: 3), overexpressed in PSCs from a doxycycline-inducible polynucleotide (protein)
# chain: MQYPHPGPAAGAVGVPLYAPTPLLQPAHPTPFYIEDILGRGPAAPTPAPTLPSPNSSFTSLVSPYRTPVYEPTPIHPAFSHHSAAALAAAYGPGGFGGPLYPFPRTVNDYTHALLRHDPLGKPLLWSPFLQRPLHKRKGGQVRFSNDQTIELEKKFETQKYLSPPERKRLAKMLQLSERQVKTWFQNRRAKWRRLKQENPQSNKKEELESLDSSCDQRQDLPSEQNKGASLDSSQCSPSPASQEDLESEISEDSDQEVDIEGDKSYFNAG
# Assays:
# PKC = conditions: cited from earlier work
# MEK = conditions: cited from earlier work
# c-Src = c-Src (Homo sapiens, UniProt P12931); conditions: cited from earlier work
# Chain of c-Src (P12931 whole entry, species assumed): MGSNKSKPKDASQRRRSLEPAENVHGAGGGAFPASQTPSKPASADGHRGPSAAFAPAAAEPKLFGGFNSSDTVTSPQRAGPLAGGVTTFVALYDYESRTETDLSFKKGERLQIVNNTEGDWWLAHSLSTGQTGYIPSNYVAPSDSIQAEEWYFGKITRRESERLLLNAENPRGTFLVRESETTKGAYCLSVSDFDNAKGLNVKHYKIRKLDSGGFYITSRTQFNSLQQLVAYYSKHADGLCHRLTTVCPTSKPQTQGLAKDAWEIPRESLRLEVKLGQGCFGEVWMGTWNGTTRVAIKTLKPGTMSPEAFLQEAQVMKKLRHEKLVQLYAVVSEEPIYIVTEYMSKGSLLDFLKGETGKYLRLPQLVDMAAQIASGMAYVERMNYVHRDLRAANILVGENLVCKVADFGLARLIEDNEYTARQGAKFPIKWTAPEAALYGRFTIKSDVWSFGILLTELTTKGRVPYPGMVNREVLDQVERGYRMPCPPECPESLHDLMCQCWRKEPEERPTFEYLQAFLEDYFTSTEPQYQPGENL
# PDGFR = conditions: cited from earlier work
# VEGFR2 = VEGFR2 (Homo sapiens, UniProt P35968); conditions: cited from earlier work
# Chain of VEGFR2 (P35968 20-1356, species assumed): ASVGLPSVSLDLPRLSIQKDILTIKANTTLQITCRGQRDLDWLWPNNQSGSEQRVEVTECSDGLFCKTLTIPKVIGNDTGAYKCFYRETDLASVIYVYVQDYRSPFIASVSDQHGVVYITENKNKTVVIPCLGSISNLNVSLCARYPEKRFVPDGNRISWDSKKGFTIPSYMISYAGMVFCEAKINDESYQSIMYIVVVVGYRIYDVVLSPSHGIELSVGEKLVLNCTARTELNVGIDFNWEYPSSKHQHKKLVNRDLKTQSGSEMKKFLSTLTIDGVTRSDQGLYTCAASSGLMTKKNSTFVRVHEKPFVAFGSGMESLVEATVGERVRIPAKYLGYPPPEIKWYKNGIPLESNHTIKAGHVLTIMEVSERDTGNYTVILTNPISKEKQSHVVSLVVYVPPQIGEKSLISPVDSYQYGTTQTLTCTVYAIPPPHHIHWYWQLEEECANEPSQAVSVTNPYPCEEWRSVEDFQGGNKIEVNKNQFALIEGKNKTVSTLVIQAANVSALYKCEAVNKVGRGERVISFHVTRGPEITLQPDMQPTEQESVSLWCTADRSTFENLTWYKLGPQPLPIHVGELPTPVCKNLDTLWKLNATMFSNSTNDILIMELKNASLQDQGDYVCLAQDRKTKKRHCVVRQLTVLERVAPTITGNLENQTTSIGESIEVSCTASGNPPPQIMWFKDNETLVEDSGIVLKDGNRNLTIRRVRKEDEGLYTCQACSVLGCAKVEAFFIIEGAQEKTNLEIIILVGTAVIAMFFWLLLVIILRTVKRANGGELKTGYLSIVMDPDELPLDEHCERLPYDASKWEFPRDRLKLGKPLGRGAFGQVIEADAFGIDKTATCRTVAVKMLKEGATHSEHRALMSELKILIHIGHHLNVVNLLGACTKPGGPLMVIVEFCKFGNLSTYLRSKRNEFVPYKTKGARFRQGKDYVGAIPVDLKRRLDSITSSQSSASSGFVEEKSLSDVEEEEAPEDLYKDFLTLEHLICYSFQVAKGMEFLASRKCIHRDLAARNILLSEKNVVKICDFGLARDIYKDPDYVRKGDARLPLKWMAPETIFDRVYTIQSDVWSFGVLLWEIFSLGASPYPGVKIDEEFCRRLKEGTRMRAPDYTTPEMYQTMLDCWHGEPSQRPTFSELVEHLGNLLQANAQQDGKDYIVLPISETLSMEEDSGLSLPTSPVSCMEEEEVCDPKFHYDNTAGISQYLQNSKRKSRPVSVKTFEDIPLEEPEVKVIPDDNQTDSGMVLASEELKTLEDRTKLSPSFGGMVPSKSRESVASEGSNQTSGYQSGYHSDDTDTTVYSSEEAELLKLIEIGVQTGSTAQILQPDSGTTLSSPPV
# SW480 cells = conditions: Huang et al.; cited from earlier work
# [1] = system: NANOS3-mVenus PSCs (hiPSCs); assay: Primordial germ cell (hPGCLC) induction via TF overexpression in hiPSCs; type: cell-based, human; conditions: for effect on NANOS3+ hPGCLC yield: doxycycline induction, monolayer, FIG. 1B
# Text: FIGS. 1A-1B show identification of overexpressed transcription factors (TFs) that drive enhancement of NANOS3+ primordial germ cell yield.
# A method was designed for high yield germ cell formation from stem cells in monolayer culture conditions, which is described in more detail below and in FIG. 4 with a culture media composition described in Table 1. The TFs DLX5, HHEX, or FIGLA or all three together, were integrated to iPSCs via piggyBac or lentivirus and a purified pool was selected through antibiotic addition. For germ cell induction, 2,500 TF-containing iPSCs per cm^2 were seeded in mTeSR™ medium on Corning® Matrigel® Matrix for six hours. After about 12-18 hours, Media #1 was removed and the cells were again washed, and Media #2 was added. The cells were then grown for about 24 hours, after which Media #2 was replaced by Media #3. The cells were again grown for about 24 hours, after which Media #3 was replaced by Media #4. Finally, the cells were again grown for about 24 hours, at which point primordial germ cells was harvested and isolated via FACS.
# Expression plasmids containing TF cDNAs under the control of a doxycycline-inducible promoter were integrated into iPSCs using PiggyBac transposase. To perform the integration, ˜50-100 fmol of TF cDNA plasmid, ˜150-250 ng PiggyBac transposase expression plasmid, and ˜100,000-200,000 iPSCs were combined in Lonza P3 buffer and electroporated using a Lonza Nucleofector 4D. After electroporation, cells were seeded in 24-well plates in mTeSR™ Plus Medium+˜8-12 μM Y-27632. Selection with the appropriate agent (typically puromycin) commenced 48 hours after electroporation and continued for ˜3-5 days. Cells were then passaged without drug selectin for ˜3 days to allow for non-integrated plasmid loss. Finally, cells were again passaged under drug selection to generate a pure, selected integrant pool. Presence and approximate copy number of integrated TF plasmids was confirmed by qPCR on genomic DNA. For oogonia, pools of hiPSCs were utilized, not single cell selected clones. Average copy number was 8-10.
# hiPSCs containing integrated TF expression plasmids were cultured in mTeSR 1 medium on Matrigel. For induction in monolayer, hiPSCs are disassociated to single cells using Accutase and seeded on Matrigel or vitronectin XF coated plates at a density of 2,500-3,000 cells per cm^2 in mTeSR™ media+˜8-10 μM Y-27632 and ˜0.5-3 μg/ml doxycycline for about 6 hours. Media was then removed and washed with dPBS and replaced with aRB27 media #1 (see components list in detailed protocol). After about 12-18 hours of induction, media #1 is removed and washed with dPBS and replaced by media #2. After about 24 hours, media #2 is removed and replaced by media #3. […]
molecule,measurement,setting,value
CCN(CC)CCCCNc1ncc2cc(-c3cc(OC)cc(OC)c3)c(NC(=O)NC(C)(C)C)nc2n1 [PD 173074],IC50,PKC,> 50 µM
same,IC50,MEK,> 50 µM
same,IC50,c-Src,~19.8 µM
same,IC50,PDGFR,~17.6 µM
same,IC50,VEGFR2,~0.1 µM
Oc1nc(-c2ccc(C(F)(F)F)cc2)nc2c1CSCC2 [XAV939],effect on β-catenin,SW480 cells,promotes the degradation of β-catenin
"DLX5: Distal-Less Homeobox 5 transcription factor (SEQ ID NO: 2), overexpressed in PSCs from a doxycycline-inducible polynucleotide",germ cell formation rescue compared to wildtype,[1]; absence of BMP4,50%
same,effect on NANOS3+ hPGCLC yield,[1],enhanced
same,activity (hPGCLC yield) retained without hBMP4,"[1]; without hBMP4, compared to normal condition, FIG. 3A",40%
"FIGLA: Folliculogenesis Specific BHLH Transcription Factor (SEQ ID NO: 1), overexpressed in PSCs from a doxycycline-inducible polynucleotide",effect on NANOS3+ hPGCLC yield,[1],enhanced
B1,effect on NANOS3+ hPGCLC yield,[1],enhanced
